Test results as given in patent US5834435A, “Inhibition of TNF-α pleiotropic and cytotoxic effects” (priority 1996, dated 1998).

What was measured:
[1] = system: isolated cardiac myocytes; assay: Effects of TNF-α on contractivity of adult cardiac myocytes (cell shortening, video edge detection); type: cell-based, human
Procedure: Myocardial samples were obtained from organ donors, whose hearts were initially considered for cardiac transplantation but were subsequently deemed unsuitable for transplantation because of blood type or size incompatibility. Freshly isolated myocytes were treated for 60 minutes at 37° C. with single concentration of GMDP (5 μg/ml). Control cells were treated with single concentration of recombinant human TNF-α (Genzyme) that is known to produce negative inotropic effects in isolated cardiac myocytes (200 μ/ml). Cell motion was characterized with video edge detection as previously described in detail (17). Results were expressed as percentage change in cell length from resting values.

[2] = system: isolated cardiac myocytes; assay: Intracellular fluorescence brightness in isolated cardiac myocytes; type: cell-based; settings: 200 μ/ml TNF-α; n=45 cells/group; FIG. 7 insert
Text: As shown, the peak level of intracellular fluorescence brightness was reduced strikingly for the cells treated with 200 μ/ml TNF-α.

[3] = system: E6/1.2 anti-GMDP monoclonal antibody; assay: Antibody capture assay with antigen competition variation; type: binding, mouse; settings: 1 μg/well and 0.1 μg/well GMDP-Lys-PAA; FIGS. 1A,B and 2
Text: Antibody capture assay (Antibodies: A laboratory Manual (E. Harlow and D. Lane, eds.), Cold Spring Harbor Laboratory, 1988) with antigen competition variation has been used to detect GMDP in human […]. Highly specific mouse E6/1.2 anti-GMDP monoclonal antibody (Ka=2×10^9 M^-1) and GMDP conjugated to polyacrylamide backbone through amino group of lysine (GMDP-Lys-PAA) were obtained from Dr. Nesmeyanov, the Shemyakin and Ovchinnikov Institute of Bioorganic Chemistry, Russian Academy of Sciences, Moscow, Russia.
Briefly, GMDP-Lys-PAA or serial dilutions of human female milk in phosphate buffered saline (PBS) were adsorbed onto wells of microtiter plates for several hours. After washing with PBS, remaining binding sites were blocked by 1 h incubations with 200 μl PBS+3% bovine serum albumin (BSA). After washing with PBS 100 μl of E6/1.2 antibody, diluted 1:1,000 or 1:2,000 with PBS+1% BSA, were added. The incubation was carried out for 1 h at room temperature. […] Optical density at 492 nm was measured.
Two different amounts of GMDP-Lys-PAA in PBS were adsorbed onto wells of microtiter plates (1 μg/well and 0.1 μg/well). […] Inhibition index (I,%) was calculated from: I=(1-Ao/A1)×100, where Ao and A1 are optical densities of samples without or with inhibitor, respectively.

[4] = system: patients with terminate stage of cancer
Text: 27 patients with terminate stage of cancer participated in this study. The study group consisted of 19 females and 8 males between 14 and 59 years of age. 3 of them have had malignant brain tumors glioblastoma multiforme, 9 patients had breast carcinoma with massive metastasis to the liver or brain, one patient had intermediate stage lymphoma, one of them had stomach cancer with liver metastasis, three patients had hepatomas with lung metastasis, and two of them pancreatic cancer with liver metastasis.
19 patients were given GMDP orally at dosage of 50 mg daily as a water solution for fourteen days. 8 patients received a placebo.
Results were expressed as percentage change in LDH activity from pretreatment values.

[5] = system: patients with terminate stage of cancer; remark: listed apart in the source
Text: Results were expressed as percentage change in both triglycerides and cholesterol level from pretreatment values.

Compound: TNF-α [reference compound]
- cell shortening ([1]; cells treated with TNF-α vs control, n=40 cells/group, FIG. 6): concentration-dependent decrease
- decrease in the percent change in peak intensity of fluorescence brightness [2]: ~ 38%

Compound: CC(=O)NC1C(OC2C(CO)OC(O)C(NC(C)=O)C2OC(C)C(=O)NC(C)C(=O)NC(CCC(=O)O)C(N)=O)OC(CO)C(O)C1O [GMDP, N-acetyl-D-glucosaminyl-(β1-4)-N-acetylmuramyl-L-alanyl-D-isoglutamine]
- inhibition of E6/1.2 antibody interaction with the adsorbed GMDP-Lys-PAA [3]: inhibition
- negative inotropic effects of TNF-α in isolated cardiac myocytes ([1]; FIGS. 6 and 7 taken together): inhibits
- effects of TNF alfa on cell shortening after pretreatment ([1]; GMDP 5 μg/ml, 60 minutes at 37° C., 200 μ/ml TNF alfa, FIG. 6): completely attenuated
- overall clinical condition during the follow up period ([4]; all patients treated with GMDP): improved
- side effects ([4]; orally 50 mg daily as water solution for fourteen days): None
- decreasing of LDH activity (percentage change from pretreatment values) ([4]; orally 50 mg daily, fourteen days, lowest level at the fourteenth day, FIG. 8): 68%
- nausea and vomiting subsided ([4]; patients who had these symptoms of tumor toxicity before treatment): 7 patients
- reduction of elevated cholesterol level (percentage change from pretreatment values) ([5]; patient treated with GMDP, FIG. 10): 51%
- decreasing for triglycerides concentration (percentage change from pretreatment values) ([5]; treated patients with elevated triglycerides, FIG. 9): 82%
